In publication PMC6009894, “Molecular modelling insights into a physiologically favourable approach to eicosanoid biosynthesis inhibition through novel thieno[2,3-b]pyridine derivatives” (Journal of Enzyme Inhibition and Medicinal Chemistry, 2018):
“And” between values parts separate entries of the source, which are not always exact repeats. Equal entries are not always repeated.

Tests used:
[1] = test system: carrageenan-induced rat paw oedema; experiment: carrageenan-induced rat paw oedema assay; type: in vivo, Sprague–Dawley rats; conditions: for Inhibition of acute inflammation % inh / Swel (mean difference in rat paw volume between right and left paw): dose equivalent to 70 mg kg-1 ibuprofen; for Swel (mean difference in rat paw volume between right and left paw): DMSO
Method: According to a priori test results, experiments were conducted on young adult male Sprague–Dawley rats (5 rats per group), weighing 140–170 g. The animals were housed at cages in a temperature controlled (25 ± 1 °C) environment and were fed ad libitum with standard laboratory chow and allowed free access to water. […] The animal protocol is in accordance with the Animal Ethical Care regulations in the Faculty of Pharmacy, Helwan University.
Compounds (equimolar to the reference drug) were dissolved in DMSO and administrated subcutaneously. One hour later, paw oedema was induced by subplantar injection of 0.1 ml of 1% carrageenan (Sigma-Aldrich, St. Louis, MO) into the right hind paw. Paw volume was measured using a water plethysmometer (Basile, Comerio, Italy). The difference between the right and left paw volume was measured at 1, 2, 3, and 4 h after induction of inflammation.
The control group (five rats per group) received DMSO subcutaneously and carrageenan in the subplantar region. Results were expressed as percentage inhibition of inflammation.

| SMILES | melting point [°C] | Inhibition of acute inflammation % inh ([1]; 1 h) [%] | Swel (mean difference in rat paw volume between right and left paw) ([1]; 1 h after carrageenan) | Inhibition of acute inflammation % inh ([1]; 2 h) [%] | Swel (mean difference in rat paw volume between right and left paw) ([1]; 2 h after carrageenan) | Inhibition of acute inflammation % inh ([1]; 3 h) [%] | Swel (mean difference in rat paw volume between right and left paw) ([1]; 3 h after carrageenan) | Inhibition of acute inflammation % inh ([1]; 4 h) [%] | Swel (mean difference in rat paw volume between right and left paw) ([1]; 4 h after carrageenan) | inflammation reduction % (4h) ([1]; rat paw oedema, 4 h time interval, subcutaneous, equimolar to ibuprofen 70 mg kg-1) |
| --- | --- | --- | --- | --- | --- | --- | --- | --- | --- | --- |
| CC1=CC(C)=C(C#N)C2SC(=Cc3ccccc3)C(=O)N12 (racemic) [Compound 2a] | 105 to 107 | 0 | 0.457 | 0 | 0.595 | 16.605 | 0.453 | 21.95 | 0.491 |  |
| CC1=CC(C)=C(C#N)C2SCN(c3ccccc3)CN12 (racemic) [Compound 4a, (±)3-Aryl-2,3,4,9a-tetrahydro-6,8-dimethylpyrido[2,1-b][1,3,5]thiadiazine-9-carbonitrile] | 180 to 182 | 0 | 0.394 | 0 | 0.407 | 38.174 | 0.336 | 43.38 | 0.356 |  |
| CC1=CC(C)=C(C#N)C2SCN(Cc3ccccc3)CN12 (racemic) [Compound 4c] | 125 to 127 | 0 | 0.45 | 4.78 | 0.22 | 7.39 | 0.213 | 35.08 | 0.409 |  |
| Cc1cc(C)c(C#N)c(=S)[nH]1 [Compound 1, 1,2-Dihydro-4,6-dimethyl-2-thioxopyridine-3-carbonitrile] |  | 0 | 0.503 | 0 | 0.353 | 38.725 | 0.33 | 43.91 | 0.353 |  |
| CSc1nc(C)cc(C)c1C#N [Compound 3a, S-Methyl-4,6-dimethyl-2-thiopyridine-3-carbonitrile] |  | 0 | 0.382 | 0 | 0.363 | 12.438 | 0.476 | 43.7 | 0.354 |  |
| CCOC(=O)CSc1nc(C)cc(C)c1C#N [Compound 3b, ethyl 2-(3-cyano-4,6-dimethylpyridin-2-ylthio)acetate] | 93 |  |  |  |  |  |  |  |  |  |
| CCOC(=O)c1sc2nc(C)cc(C)c2c1N [Compound 5, Ethyl-3-amino-4,6-dimethylthieno[2,3-b]pyridine-2-carboxylate] |  | 0 | 0.393 | 0 | 0.46 | 28.921 | 0.386 | 46.03 | 0.34 |  |
| Cc1cc(C)c2c(N)c(C(=O)NN)sc2n1 [Compound 6, 3-Amino-4,6-dimethylthieno[2,3-b]pyridine-2-carbazide] |  | 0 | 0.410 | 0 | 0.486 | 38.84 | 0.332 | 58.67 | 0.26 |  |
| COc1ccc(C=NNC(=O)c2sc3nc(C)cc(C)c3c2N)cc1 [Compound 7c, 3-Amino-4,6-dimethyl-thieno [2,3-b] pyridine-2-carboxylic acid (4-methoxy-benzylidene)-hyrazide] |  | 11.59 | 0.203 | 25.64 | 0.193 | 58.3 | 0.226 | 63.49 | 0.23 |  |
| Cc1cc(C)c2c(n1)sc1c(=O)n(N=Cc3ccccc3)nnc12 [Compound 8a, 7,9-Dimethyl-3-[(phenylmethylene)amino]pyrido[3′,2′:4,5]thieno[3,2-d][1,2,3]triazin-4(3H)-one] | 300 to 302 | 0 | 0.256 | 14.1 | 0.223 | 30.75 | 0.376 | 53.96 | 0.29 |  |
| Cc1cc(C)c2c(N)c(-n3nc(C)cc3C=C=O)sc2n1 [Compound 9b, 3-Amino-2-[carbonyl (3,5-dimethyl-pyrazol-1-yl)]-4,6-dimethylthieno[2,3-b] pyridine] | 150 to 152 |  |  |  |  |  |  |  |  |  |
| CC(=O)N(C(C)=O)n1c(C)nc2c(sc3nc(C)cc(C)c32)c1=O [Compound 10b, 3-Diacetylamino-2,7,9-trimethylpyrido [3',2':4,5]thieno[3,2-d]pyrimidin-4(3H)-one] | 133 to 135 |  |  |  |  |  |  |  |  |  |
| CC(C)Cc1ccc(C(C)C(=O)O)cc1 (stereo not drawn) [Ibuprofen, reference compound] |  | 6.08 |  | 45 |  | 60.66 |  | 69.52 |  | 69.5% and 69.52% |
